Measurements published in PubChem BioAssay (NCI).
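Growth conditions: 96-well plates. Treatment: test compound, 48 hours, 5 concentrations. Analysis: linear interpolation between bracketing concentrations; unreached endpoints set to highest concentration. GI50 is the concentration that inhibits growth by half. TGI: concentration producing complete growth inhibition.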

How the values were obtained:
Assay in all cases: DTP human tumour cell line panel, 48 h
[1] = test system: IGROV1 ovarian
[2] = test system: K-562 leukemia
[3] = test system: OVCAR-8 ovarian
[4] = test system: RPMI-8226 leukemia
[5] = test system: SK-MEL-5 melanoma
[6] = test system: SK-OV-3 ovarian
[7] = test system: SN12C renal
[8] = test system: SNB-75 CNS
[9] = test system: SR leukemia
[10] = test system: UACC-62 melanoma

| SMILES | GI50 [1] [µM] | TGI [1] [µM] | GI50 [2] [µM] | TGI [2] [µM] | GI50 [3] [µM] | TGI [3] [µM] | GI50 [4] [µM] | TGI [4] [µM] | GI50 [5] [µM] | TGI [5] [µM] | GI50 [6] [µM] | TGI [6] [µM] | GI50 [7] [µM] | TGI [7] [µM] | GI50 [8] [µM] | TGI [8] [µM] | GI50 [9] [µM] | TGI [9] [µM] | GI50 [10] [µM] | TGI [10] [µM] |
| --- | --- | --- | --- | --- | --- | --- | --- | --- | --- | --- | --- | --- | --- | --- | --- | --- | --- | --- | --- | --- |
| C[n+]1c2ccccc2nc2ccccc21 | 2.86 | 14 | 1.86 | > 32.4 | 2.61 | 20.6 | 0.343 | 16.3 | 1.03 | 2.52 | 4.59 | 18.1 | 1.63 | 3.41 | 1.38 | 3.1 | 6.14 | > 28.2 | 1.41 | 2.99 |
| NC(N)=NC(N)=NCCCc1ccco1 | > 500 | > 500 | 24.5 | 238 | 31.8 | 190 | 23.7 | 101 | > 500 | > 500 | 142 | > 500 | 87.2 | 253 | 83.3 | 245 | 19.6 | 89.8 | 37.8 | 111 |
| COc1ccc2c(c1)NC1(O)c3ccccc3C(=O)C21O (stereo not given) | – | > 100 | – | > 100 | – | > 100 | – | > 100 | – | > 100 | – | > 100 | – | > 100 | – | > 100 | – | > 100 | – | > 100 |
| C=C1C(=O)O[C@H]2[C@H]1CC/C(COC(=O)CCCc1c[nH]c3ccccc13)=C\CC[C@@]1(C)O[C@@H]21 | 1.63 | 3.61 | 2.6 | 11 | 3.38 | 11.2 | 2.31 | 6.09 | 1.74 | 3.13 | 17.3 | 32.8 | 1.9 | 4.44 | 12.6 | 26.6 | 1.73 | 6.37 | 1.84 | 3.79 |
| CC(C)(C)N/N=C(\C(=O)Nc1nc(=S)[nH][nH]1)C1C(=O)Nc2ccccc2S1=O (stereo not given) | – | > 100 | – | > 100 | – | > 100 | – | > 100 | – | > 100 | – | > 100 | – | > 100 | – | > 100 | – | > 100 | – | > 100 |
